According to patent US20200338045A1, “ISOINDOLINE COMPOSITIONS AND METHODS FOR TREATING NEURODEGENERATIVE DISEASE” (priority 2017, published 2020):
“Also recorded” adds a separate entry of the source. Where two headings read alike, the source gives them in different places.

Tests used:
Assay type in all cases: in vivo, human
[1] = Phase 1 SAD safety (adverse events, laboratory, ECG)
Protocol: (§1) Part A was a single ascending dose cohort study in which healthy, young subjects (less than 65 years old) received one dose of study drug in the morning after an overnight fast. Cohort dosing started at 10 mg and increased to 30 mg, 90 mg, 180 mg, 450 mg, and 1120 mg in subsequent cohorts. Six drug-treated and two placebo-treated subjects were randomized in each cohort. A seventh cohort of six subjects each received a single 90 mg dose of drug 30 min. after a meal. Following completion of all safety assessments and blood draws for PK analyses, subjects were discharged on Day 3.
Safety variables, including incidence of adverse events (AEs), vital signs, clinical laboratory findings, 12-lead electrocardiographs (ECGs), physical examination, and affective and cognitive measures (Part B only), were summarized for all subjects who received study drug.

[2] = COG0102 pharmacokinetics: plasma and CSF concentrations, estimated brain receptor occupancy; conditions: 90-560 mg
Protocol: This trial (ClinicalTrials.gov NCT02907567) was a randomized, double-blind, placebo-controlled clinical trial in mild to moderate Alzheimer's patients (MMSE 18-26) (See FIG. 1 for clinical trial design). The trial was conducted at six sites in Australia. Patients were randomized into placebo (n=5) or CT1812-treated groups: 90 mg (n=4), 280 mg (n=5) or 560 mg (n=5) and treated once daily for 28 days. Clinical chemistry was done at Sydpath (Sydney, AU). Pharmacokinetics were done at CPR Pharma Services (Adelaide, AU). Cerebrospinal fluid samples were taken at screening and day 21-28 of treatment and aliquoted. […] One set of CSF samples was analyzed for Alzheimer's disease biomarkers; protein measurements (Aβ42, A1340, total tau, tau phosphorylated at threonine 181 (phosphorylated tau), NFL and neurogranin) were performed using commercially available ELISA assays from Fujirebio according to the manufacturer's instructions (INNOTEST β-AMYLOID(1-42), INNOTEST β-AMYLOID(1-40), INNOTEST hTau Ag, INNOTEST PHOSPHO-TAU(181P), Uman Diagnostics NFL assay). Neurogranin was measured with a sandwich ELISA method using antibodies Ng2 and Ng22 developed at the University of Gotteborg (Kvartsberg et al. 2015). Identical aliquots of CSF, and plasma were analyzed for protein expression changes via LC/MSMS at Caprion (see below).

[3] = Phase 1 single ascending dose (SAD)/food-effect plasma pharmacokinetics; conditions: for Cmax / Tmax / AUC(0-inf) / half-life: human, plasma, oral; for AUC(0-inf): read-out: AUC0-inf (mean)
Protocol: as §1
In Part A, blood draws for assessment of PK parameters occurred pre-dose and at 15, 30, 45, 60, and 90 minutes post dose as well as at 2, 3, 4, 8, 12, 24, 36, and 48 hours post dose. […] In Part B, blood samples for plasma PK analysis were taken on Day 1 at pre-dose and at 2 hours post-dose, on Day 3 at pre-dose and at 15, 30 and 45 minutes and 1, 2, 3, 4, 8, 12 and 24 hours post-dose, on Days 4, 6, 8 and 10 at pre-dose and at 1.5 hours post-dose and following the final dose on Day 14 at pre-dose and 15, 30 and 45 minutes and 1, 2, 4, 8, 12, 24, 36 and 48 hours post-dose.
This was assessed by analysis of variance (ANOVA) of log-transformed Cmax, AUC0-24, AUC0-48, and/or AUC0-inf, using a model with factors for treatment (fed status or age [young vs. elderly] status) and subject within sequence. Treatment mean differences and 90% confidence intervals of the log transformed PK parameters were back-transformed, to present the geometric least squares means ratios and 90% confidence limits.

[4] = 30 mg, single 30 mg, fasted (n = 6)
[5] = 90 mg, single 90 mg, fasted (n = 6)
[6] = 90 mg, single 90 mg, fed (n = 6)
[7] = 180 mg, single 180 mg, fasted (n = 6)
[8] = 450 mg, single 450 mg, fasted (n = 6)
[9] = 1120 mg, single 1120 mg, fasted (n = 6)
[10] = single 90 mg, geometric least-squares mean

In the case of `CC(C)(C)Oc1cc(CCC(C)(C)N2Cc3ccc(S(C)(=O)=O)cc3C2)ccc1O` [CT1812], the “ECG parameters or changes” value ([1]; SAD) is reported as “No ECG parameters or changes were assessed as clinically significant”, the “deaths or serious adverse events” value ([1]; SAD) is reported as “no deaths or other serious adverse events” and the “All TEAEs, number of subjects” value ([1]; SAD Total Active (n = 42)) is reported as 18. For the same compound, the “Headache, % of subjects” value ([1]; SAD Total Active (n = 42)) was “(14%)”, the “Headache, number of subjects” value ([1]; SAD Total Active (n = 42)) was 6 and the “Nausea, % of subjects” value ([1]; SAD Total Active (n = 42)) was “(14%)”. For the same compound, the “Nausea, number of subjects” value ([1]; SAD Total Active (n = 42)) was 6, the “All TEAEs, % of subjects” value ([1]; single 10 mg fasted (n = 6)) was “(33%)” and the “All TEAEs, number of subjects” value ([1]; single 10 mg fasted (n = 6)) was 2. The “Headache, % of subjects” value ([1]; single 10 mg fasted (n = 6)) was “(50%)”, the “Headache, number of subjects” value ([1]; single 10 mg fasted (n = 6)) was 3 and the “Nausea, % of subjects” value ([1]; single 10 mg fasted (n = 6)) was “(17%)”. For the same compound, the “Nausea, number of subjects” value ([1]; single 10 mg fasted (n = 6)) was 1, the “All TEAEs, % of subjects” value ([1]; single 30 mg fasted (n = 6)) was “(67%)” and the “All TEAEs, number of subjects” value ([1]; single 30 mg fasted (n = 6)) was 4. The “All TEAEs, % of subjects” value ([1]; single 90 mg fed (n = 6)) was “(33%)”, the “All TEAEs, number of subjects” value ([1]; single 90 mg fed (n = 6)) was 2 and the “Headache, % of subjects” value ([1]; single 90 mg fed (n = 6)) was “(17%)”. The “Headache, number of subjects” value ([1]; single 90 mg fed (n = 6)) was 1, the “All TEAEs, % of subjects” value ([1]; single 180 mg fasted (n = 6)) was “(33%)” and the “All TEAEs, number of subjects” value ([1]; single 180 mg fasted (n = 6)) was 2. For the same compound, the “All TEAEs, % of subjects” value ([1]; single 450 mg fasted (n = 6)) was “(67%)”, the “All TEAEs, number of subjects” value ([1]; single 450 mg fasted (n = 6)) was 4 and the “Headache, % of subjects” value ([1]; single 450 mg fasted (n = 6)) was “(17%)”. The “Headache, number of subjects” value ([1]; single 450 mg fasted (n = 6)) was 1, the “Nausea, % of subjects” value ([1]; single 450 mg fasted (n = 6)) was “(33%)” and the “Nausea, number of subjects” value ([1]; single 450 mg fasted (n = 6)) was 2. For the same compound, the “All TEAEs, % of subjects” value ([1]; single 1120 mg fasted (n = 6)) was “(67%)”, the “All TEAEs, number of subjects” value ([1]; single 1120 mg fasted (n = 6)) was 4 and the “Headache, % of subjects” value ([1]; single 1120 mg fasted (n = 6)) was “(17%)”. For the same compound, the “Headache, number of subjects” value ([1]; single 1120 mg fasted (n = 6)) was 1, the “Nausea, % of subjects” value ([1]; single 1120 mg fasted (n = 6)) was “(50%)” and the “Nausea, number of subjects” value ([1]; single 1120 mg fasted (n = 6)) was 3. For the same compound, the “tolerability, single dose” value ([1]; single dose 10 mg to 1120 mg, healthy young subjects) was “safe and well tolerated”, the “plasma CT1812 concentration vs dose” value ([2]; day 28) was “increased approximately dose proportionally” and the “CSF CT1812 concentration vs dose” value ([2]; days 22-30) was “dose dependent increase”. The “food effect on CT1812 exposure” value ([3]; 90 mg fed vs. fasted) was “not considered clinically significant; also recorded: no significant difference”, the “Cmax and AUC / plasma concentration vs dose” value ([3]; SAD 10 mg to 1120 mg) was “dose proportional; also recorded: slightly greater than proportional with dose; also recorded: slightly greater than dose proportionally” and the Cmax ([3]; 10 mg, single 10 mg, fasted, Day 1 (n = 6)) was 5.07 ng/mL. The Tmax ([3]; 10 mg, single 10 mg, fasted, Day 1 (n = 6), read-out: Tmax (median)) was 1.5 h, the AUC(0-inf) ([3]; 10 mg, single 10 mg, fasted, Day 1, n = 5) was 30.6 ng·h/mL and the half-life ([3]; 10 mg, single 10 mg, fasted, Day 1, n = 5, read-out: t1/2 (mean) (converted)) was 12 h. It also gave a Cmax [3, 4] of 19.5 ng/mL, an AUC(0-inf) [3, 4] of 77.2 ng·h/mL and a Tmax ([3]; 30 mg, single 30 mg, fasted (n = 6), read-out: Tmax (median)) of 0.88 h. For the same compound, the half-life ([3]; 30 mg, single 30 mg, fasted (n = 6), read-out: t1/2 (mean) (converted)) was 14 h, the Cmax [3, 5] was 109 ng/mL and the AUC(0-inf) [3, 5] was 305 ng·h/mL. The Tmax ([3]; 90 mg, single 90 mg, fasted (n = 6), read-out: Tmax (median)) was 1.25 h, the half-life ([3]; 90 mg, single 90 mg, fasted (n = 6), read-out: t1/2 (mean) (converted)) was 12.1 h and the Cmax [3, 6] was 81.7 ng/mL. The AUC(0-inf) [3, 6] was 261 ng·h/mL, the Tmax ([3]; 90 mg, single 90 mg, fed (n = 6), read-out: Tmax (median)) was 1.5 h and the half-life ([3]; 90 mg, single 90 mg, fed (n = 6), read-out: t1/2 (mean) (converted)) was 11.6 h. For the same compound, the Cmax [3, 7] was 161 ng/mL, the AUC(0-inf) [3, 7] was 478 ng·h/mL and the Tmax ([3]; 180 mg, single 180 mg, fasted (n = 6), read-out: Tmax (median)) was 1.25 h. For the same compound, the half-life ([3]; 180 mg, single 180 mg, fasted (n = 6), read-out: t1/2 (mean) (converted)) was 11.1 h, the Cmax [3, 8] was 504 ng/mL and the AUC(0-inf) [3, 8] was 1750 ng·h/mL. For the same compound, the Tmax ([3]; 450 mg, single 450 mg, fasted (n = 6), read-out: Tmax (median)) was 1.5 h, the half-life ([3]; 450 mg, single 450 mg, fasted (n = 6), read-out: t1/2 (mean) (converted)) was 12.2 h and the Cmax [3, 9] was 1460 ng/mL. It also gave an AUC(0-inf) [3, 9] of 6320 ng·h/mL, a Tmax ([3]; 1120 mg, single 1120 mg, fasted (n = 6), read-out: Tmax (median)) of 1.5 h and a half-life ([3]; 1120 mg, single 1120 mg, fasted (n = 6), read-out: t1/2 (mean) (converted)) of 11.8 h. For the same compound, the Tmax ([3]; part A (SAD), 10-1120 mg, read-out: median Tmax in plasma, range over doses) was 0.88 to 1.5 h, the half-life ([3]; part A (SAD), read-out: apparent mean half-life, range over doses) was 11.1 to 14 h and the “AUC0-48h lower under fed vs fasted conditions” value [3, 10] was ~20%. The “AUC0-inf lower under fed vs fasted conditions” value [3, 10] was ~20% and the “Cmax lower under fed vs fasted conditions” value [3, 10] was “approximately 40%”.
